Laboratory results from BindingDB's records for doi:10.7270/Q24T6GSH (The Scripps Research Institute Molecular Screening Center, 2007).
Structures can show the parent of a compound that is named as a salt.

Molecular target: T1, Isoform 2 of Nuclear receptor ROR-alpha (Alpha-2) (Homo sapiens, UniProt P35398)
T1 sequence (P35398 whole entry): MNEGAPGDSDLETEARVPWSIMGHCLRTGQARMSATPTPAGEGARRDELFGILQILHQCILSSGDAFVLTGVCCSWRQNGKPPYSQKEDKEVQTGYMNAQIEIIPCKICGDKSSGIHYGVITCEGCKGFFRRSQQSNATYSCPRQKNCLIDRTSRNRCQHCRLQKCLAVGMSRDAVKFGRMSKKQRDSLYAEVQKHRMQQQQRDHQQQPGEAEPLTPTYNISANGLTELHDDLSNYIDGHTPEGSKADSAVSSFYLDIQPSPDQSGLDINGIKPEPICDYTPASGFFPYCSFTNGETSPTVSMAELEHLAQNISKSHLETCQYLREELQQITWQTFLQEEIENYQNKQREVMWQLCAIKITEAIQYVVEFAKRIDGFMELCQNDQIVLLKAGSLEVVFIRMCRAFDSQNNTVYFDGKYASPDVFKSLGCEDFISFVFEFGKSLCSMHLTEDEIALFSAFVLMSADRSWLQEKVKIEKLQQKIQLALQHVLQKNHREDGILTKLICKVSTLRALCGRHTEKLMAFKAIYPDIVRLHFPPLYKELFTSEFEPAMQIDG
Experiment: RORA Gal4 reporter activation in CHO-K1 cells, dose response, counter-screen for SF-1 activator project, cell-based, Gal4-RORA LBD, luciferase luminescence (AID 675)

| SMILES | EC50 | EC50 (inactive by the depositor's call) |
| --- | --- | --- |
| COC(=O)c1ccc(C(=O)C(C#N)c2nc3ccccc3s2)cc1 (stereo not given) [4-[(2Z)-2-(3H-1,3-benzothiazol-2-ylidene)-2-cyano-1-oxoethyl]benzoic acid methyl ester] | 1610 nM |  |
| Cc1ccc(C(=O)Nc2ncc(Cc3ccccc3)s2)o1 [5-Methyl-furan-2-carboxylic acid (5-benzyl-thiazol-2-yl)-amide] | > 407 nM |  |
| Cc1ccc(C(=O)Nc2ncc(Cc3ccc(F)cc3)s2)o1 [5-Methyl-furan-2-carboxylic acid [5-(4-fluoro-benzyl)-thiazol-2-yl]-amide] | > 407 nM |  |
| O=C(Nc1nccs1)c1ccc(COc2ccc(F)cc2)o1 [5-[(4-fluoranylphenoxy)methyl]-N-(1,3-thiazol-2-yl)furan-2-carboxamide] | 4710 nM |  |
| Nc1c(C(=O)NCc2ccco2)nnn1-c1ccccc1 [5-amino-N-(2-furanylmethyl)-1-phenyl-4-triazolecarboxamide] | > 3670 nM |  |
| CC1(C)Cc2c(sc(NC(=O)c3ccc(Br)o3)c2C#N)CO1 [5-bromanyl-N-(3-cyano-5,5-dimethyl-4,7-dihydrothieno[2,3-c]pyran-2-yl)furan-2-carboxamide] | 752 nM |  |
| COc1ccc(OC)c2sc(NC(=O)c3ccc(Br)s3)nc12 [5-bromanyl-N-(4,7-dimethoxy-1,3-benzothiazol-2-yl)thiophene-2-carboxamide] | > 99000 nM |  |
| O=C(Nc1cccc(-c2nnc(-c3ccccc3)o2)c1)c1ccc(Br)o1 [5-bromanyl-N-[3-(5-phenyl-1,3,4-oxadiazol-2-yl)phenyl]furan-2-carboxamide] | 8560 nM |  |
| CCc1ccc(C(=O)NCc2cccs2)s1 [5-ethyl-N-(2-thenyl)thiophene-2-carboxamide] | > 3670 nM |  |
| c1ccc(-c2cnc(CSc3nnc4ccccn34)o2)cc1 [5-phenyl-2-([1,2,4]triazolo[4,3-a]pyridin-3-ylsulfanylmethyl)-1,3-oxazole] | > 1220 nM |  |
| CCN(CC)c1ccc(-n2cc3c(=O)n(C)c(=O)n(C)c3c2)cc1 [6-(4-Diethylamino-phenyl)-1,3-dimethyl-1,6-dihydro-pyrrolo[3,4-d]pyrimidine-2,4-dione] |  | 12500 nM |
| COc1ccc(-c2cn3ccsc3n2)cc1 [6-(4-methoxyphenyl)imidazo[2,1-b][1,3]thiazole] | 283 nM |  |
| CCOC(=O)c1cnc2c(-c3ccccc3)cnn2c1N [7-amino-3-phenyl-6-pyrazolo[1,5-a]pyrimidinecarboxylic acid ethyl ester] | 356 nM |  |
| COCC(C)NC(=O)c1noc2c1CCc1cc(OC)ccc1-2 (stereo not given) [7-methoxy-N-(1-methoxypropan-2-yl)-4,5-dihydrobenzo[g][1,2]benzoxazole-3-carboxamide] | 1270 nM |  |
| CCc1nc(Nc2ccc3nccnc3c2)c2oc3ccccc3c2n1 [(2-ethylbenzofuro[3,2-d]pyrimidin-4-yl)-quinoxalin-6-yl-amine;hydrochloride] | > 99000 nM |  |
| CC(=Nc1cccc(O)c1)c1sc2ccccc2c1O [(2Z)-2-[1-(3-hydroxyanilino)ethylidene]-1-benzothiophen-3-one] | > 3670 nM |  |
| COC(=O)CSc1nc2cc(C)ccc2cc1C#N [(3-Cyano-7-methyl-quinolin-2-ylsulfanyl)-acetic acid methyl ester] | > 1220 nM |  |
| Cc1ccc(C2C(C(=O)c3cnn(-c4ccccc4)c3C)C(=O)C(=O)N2CCN(C)C)o1 (stereo not given) [(4E)-1-[2-(dimethylamino)ethyl]-4-[hydroxy-(5-methyl-1-phenyl-4-pyrazolyl)methylidene]-5-(5-methyl-2-furanyl)pyrrolidine-2,3-dione] | 4130 nM |  |
| CC(=NC1CCCC1)c1c(C)[nH]n(-c2nc3ccccc3s2)c1=O [(4Z)-2-(1,3-benzothiazol-2-yl)-4-[1-(cyclopentylamino)ethylidene]-5-methylpyrazol-3-one] | > 1220 nM |  |
| Cn1c(-c2ccc3c(c2)OCO3)cnc1NCc1ccccc1 [(5-Benzo[1,3]dioxol-5-yl-1-methyl-1H-imidazol-2-yl)-benzyl-amine] | 11200 nM |  |
| Fc1ccc2nc(Nc3nc4c(s3)CCCC4)sc2c1 [(6-fluoro-1,3-benzothiazol-2-yl)-(4,5,6,7-tetrahydro-1,3-benzothiazol-2-yl)amine] | 639 nM |  |
| CC(=N)C(C#N)C(=O)CSc1ccc2c(c1)OCCO2 (stereo not given) [(E)-3-amino-2-[2-(2,3-dihydro-1,4-benzodioxin-6-ylsulfanyl)acetyl]but-2-enenitrile] | 1160 nM |  |
| O=C(Nc1ccc(NC(=O)c2cccs2)cn1)c1ccco1 [Furan-2-carboxylic acid {5-[(thiophene-2-carbonyl)-amino]-pyridin-2-yl}-amide] | 2710 nM |  |
| COc1ccccc1Nc1nc2ccccc2[nH]1 [N-(2-methoxyphenyl)-1H-benzimidazol-2-amine] | 1620 nM |  |
| COCCn1c(C)cc(C(=O)COC(=O)C23CC4CC(CC(O)(C4)C2)C3)c1C [[2-[1-(2-methoxyethyl)-2,5-dimethylpyrrol-3-yl]-2-oxoethyl] 3-hydroxyadamantane-1-carboxylate] | 741 nM |  |

Now from value to compound:

| EC50 | EC50 (inactive by the depositor's call) | SMILES |
| --- | --- | --- |
| 556 nM |  | CC(=O)Nc1ccc(-c2cc3ccccc3o2)cc1 [MLS000036584] |
| 596 nM |  | O=C(Nc1nnc(C2CCCCC2)s1)c1ccco1 [MLS000039439] |
| 2930 nM |  | CC(=O)c1c(C)[nH]c(C(=O)NCCc2cccc(C)c2)c1C [MLS000045238] |
| > 99000 nM |  | O=C(NCC1CCCO1)c1coc2nc3ccccc3nc12 (stereo not given) [MLS000046703] |
| 446 nM |  | O=C(Nc1ccc2c(c1)OCO2)c1ccc(COc2ccc3c(c2)CCC3)o1 [MLS000048173] |
| 2460 nM |  | COc1ccc(CCC(=O)Nc2ccc(-c3noc(-c4ccc(OC)c(OC)c4)n3)cc2)cc1 [MLS000049572] |
| 653 nM |  | O=C(Nc1ccc(-c2cn3ccsc3n2)cc1)C1CC1 [MLS000053249] |
| > 99000 nM |  | COc1ccc(NC(=O)c2ccc3c(c2)OCO3)cc1Cl [MLS000053302] |
| 7320 nM |  | CS(=O)(=O)c1ccc2nc(NC(=O)C3COc4ccccc4O3)sc2c1 (stereo not given) [MLS000056123] |
| 480 nM |  | O=C(Nc1ccc(CN2CCOCC2)cc1)c1cc2ccccc2o1 [MLS000062478] |
| 2530 nM |  | CC(C)(C)c1cc(NC(=O)C2CCCO2)no1 (stereo not given) [MLS000065845] |
| > 1220 nM |  | O=C(NCc1ccco1)c1cc2c(s1)CCCCC2 [MLS000065859] |
| 1570 nM |  | CCOC(=O)c1cc2cc(OC)ccc2[nH]1 [MLS000071430] |
| 1470 nM |  | C=CCn1c(-c2ccccc2)c[nH]c1=S [MLS000071728] |
| 736 nM |  | CCOc1ccc(OCC)c(NC(=O)CSc2nc3c(c(=O)n(C)c(=O)n3C)n2C(C)C)c1 [MLS000072726] |
| 4140 nM |  | Cc1cnc(NC(=O)CSc2nnc(-c3ccccc3)o2)s1 [MLS000077990] |
| 731 nM |  | CCOC(=O)c1[nH]c2ccc(C)cc2c1N [MLS000079379] |
| 551 nM |  | Nc1nc2c(s1)CCc1c-2cnn1-c1ccccc1 [MLS000085948] |
| 8140 nM |  | Cc1cc(C(=O)Nc2sc3c(c2C#N)CCC(C(C)(C)C)C3)no1 (stereo not given) [MLS000087312] |
| > 99000 nM |  | CN(C)C=Nc1ncnc2c1cnn2-c1ccc(C(F)(F)F)cn1 [MLS000087855] |
| 9170 nM |  | CCCc1cc(C(=O)Nc2ccccc2SC)no1 [MLS000116378] |
| 1220 nM |  | CC(=O)c1cccc(NC(=O)c2cnn3ccccc23)c1 [MLS000118777] |
| 2160 nM |  | CCOc1ccc(OCC)c(NC(=O)C2CCCN2S(=O)(=O)c2cccc3cccnc23)c1 (stereo not given) [MLS000119093] |
| 747 nM |  | CC(=O)Nc1ccc(-c2nc3c(C)cccc3[nH]2)cc1 [SMR000001134] |
| 10800 nM |  | Cc1cc2n(n1)C(c1ccc(N(C)C)cc1)Nc1ccccc1-2 (stereo not given) [SMR000015202] |
| > 99000 nM |  | CC1(C)CC(=O)C(=CNc2ccccc2)C(=O)C1 [SMR000054233] |
| 3720 nM |  | O=c1[nH]c2ccccc2nc1-c1cccs1 [SMR000068248] |
| 5360 nM |  | CN(C)C(=O)CSc1nnc(C23CC4CC(CC(C4)C2)C3)o1 [SMR000077996] |
| 403 nM |  | CCCCC1CCC(c2nc(-c3ccccn3)no2)CC1 (stereo not given) [SMR000105468] |
| 9880 nM |  | CC1(C)CC(=O)C(=CNc2ccc3[nH]ncc3c2)C(=O)C1 [SMR000111453] |
